Results reported in PubChem BioAssay AID1863 (Southern Research Specialized Biocontainment Screening …, 2009).

Each compound was assayed on S. Typhimurium PhoP-regulated promoter GFP reporter, 4 h (assay: PhoP-dependent GFP reporter repression – Salmonella Typhimurium, primary screen (AID 1863)).
`COC12C(COC(N)=O)C3=C(C(=O)C(C)=C(N)C3=O)N1CC1C2N1C` (stereo not given) was tested, and the IC50 was 16.3 µM. With `CC(C(=O)NC1CCS(=O)(=O)C1)N1C(=O)/C(=C/c2ccc(Cl)cc2)SC1=S` (stereo not given) the IC50 was 39.9 µM. Work on `CCCCCCCCCCCCCCCCn1cc[n+](CC(C)=O)c1` yielded an IC50 of 31.8 µM. For `CCn1cc(C(=O)O)c(=O)c2cc(F)c(N3CCN(C(=S)NC(=O)c4ccccc4C)CC3)cc21`, the IC50 was 13.5 µM. In the case of `CC(=O)NC(c1ccc(C)cc1)c1cc([N+](=O)[O-])c2cccnc2c1O` (stereo not given), the IC50 is reported as 36.8 µM. `O=C(CN1CCCC1)N/N=C/c1c(O)ccc2ccccc12` gave an IC50 of 56.4 µM. For `CC(=O)NC(c1cccs1)c1cc([N+](=O)[O-])c2cccnc2c1O` (stereo not given), the IC50 was 38.9 µM. `CN(C)c1ccc(O)c2c1CC1CC3C(N(C)C)C(=O)C(C(N)=O)=C(O)[C@@]3(O)C(=O)C1=C2O` (stereo not given in full) gave an IC50 of 9.35 µM. `CCCCCC(CC(=O)NO)C(=O)NC(C(=O)N1CCCC1CO)C(C)C` (stereo not given) was tested, and the IC50 was 12.7 µM. For `Oc1c(CN2CCN(c3ccc(F)cc3)CC2)cc(Cl)c2cccnc12`, the IC50 was 49 µM. With `Cc1ccc(-c2c[n+](CC(=O)Nc3nc(-c4ccc(F)cc4)cs3)c3n2CCC3)cc1` the IC50 was 67.8 µM. `COc1ccc(C(C[N+](=O)[O-])n2nc(C)cc2C)cc1` (stereo not given) was tested, and the IC50 was 48.7 µM. `CC(=O)Oc1cc2cccc(OC(C)=O)c(=O)c2c(OC(C)=O)c1OC(C)=O` showed an IC50 of 46.7 µM. `CN1CCN(C(c2ccc(Br)cc2)c2cc(Cl)c3cccnc3c2O)CC1` (stereo not given) gave an IC50 of 30.4 µM. `CCOc1cc(/C=N/N=C(N)N)ccc1OCc1ccc(Cl)cc1` was tested, and the IC50 was 45.9 µM. Compound `O=C1NC(=S)S/C1=C\C=C\c1ccc([N+](=O)[O-])o1` has an IC50 of 22.2 µM. `Nc1ccc2c(c1)C(=O)C(=O)c1ccccc1-2` gave an IC50 of 11.9 µM. With `CC(C(=O)c1ccc(-c2ccccc2)cc1)[n+]1cccc(NC(=O)c2ccccc2)c1` (stereo not given) the IC50 was 78.3 µM. In the case of `CN1CCN(c2cc3c(cc2F)c(=O)c(C(=O)O)cn3CCF)CC1`, the IC50 is reported as 0.37 µM. In the case of `CCCCCc1ccc(OCCC[n+]2ccccc2)c(CCCCC)c1`, the IC50 is reported as 83.2 µM. `Cc1ccc(C(c2cc(Cl)c3cccnc3c2O)N2CCN(C)CC2)cc1` (stereo not given) showed an IC50 of 55.5 µM. `CCn1cc(C(=O)O)c(=O)c2cc(F)c(N3CCN(C(=S)NC(=O)c4cccc(F)c4)CC3)cc21` gave an IC50 of 18.3 µM. `COc1ccc(CNC[C@@H](CCCCN(C)Cc2ccc(OC)cc2)N2C[C@H](c3ccccc3)N(CCc3ccc(Cl)c(Cl)c3)C(=O)C2=O)cc1` gave an IC50 of 76.3 µM. `CCn1cc(C(=O)NCCCO)c(=O)c2cc(F)c(N3CCN(C)CC3)cc21` gave an IC50 of 25.5 µM. With `C1=C(CCNCc2ccccc2)CCCC1` the IC50 was 9.02 µM. Work on `CC[C@@H](C)[C@H](CNC)NC[C@@H](Cc1cccc2ccccc12)NCCc1cccc(C(F)(F)F)c1` yielded an IC50 of 33.2 µM. `COC(=O)C(C)NC(=S)N1CCN(c2c(F)cc3c(=O)c(C(=O)O)cn(C4CC4)c3c2OC)CC1C` (stereo not given) was tested, and the IC50 was 75.4 µM. `Clc1ccc(-c2c[n+](Cc3ccc(Cl)cc3Cl)c3n2CCCCC3)cc1` was tested, and the IC50 was 125 µM. `C#CCOCCOCCOCCNc1nc(N2CCN(C(=O)CCCCCCCCCCNC(=O)[C@H](CCCN=C(N)N)n3cc(C[C@@H](C)CC)nn3)CC2)nc(N2CCN(C(=O)CCCCCCCCCCNC(=O)[C@@H]([C@H](C)CC)n3cc(CCCCCN)nn3)CC2)n1` gave an IC50 of 83.1 µM. `Oc1cccc(C=NCc2ccccc2)c1O` showed an IC50 of 106 µM. With `CCCCCCCCCCCCCCCCn1cc[n+](C)c1` the IC50 was 17.1 µM. Compound `O=c1[nH]c2ccccc2n2c(=S)[nH]nc12` has an IC50 of 39.4 µM. With `CCCCCCCCCCCCCCCC[n+]1ccc(/C=N/O)cc1` the IC50 was 33 µM. `N=C(N)SCc1cn(-c2ccccc2)nc1-c1ccc(Br)cc1` was tested, and the IC50 was 30.5 µM. For `Clc1cc(Br)ccc1OCCCNCc1ccccc1`, the IC50 was 82.8 µM. `CCn1cc(C(=O)O)c(=O)c2cc(F)c(N3CCN(C(=S)NC(=O)c4ccc(OC)cc4)CC3)cc21` showed an IC50 of 11.3 µM. `COC1C(OC(=O)c2ccc(C)[nH]2)C(O)C(Oc2ccc3c(O)c(NC(=O)c4ccc(O)c(CC=C(C)C)c4)c(=O)oc3c2Cl)OC1(C)C` (stereo not given) gave an IC50 of 11.8 µM. `C/C(=N\NC(=O)c1cc2ccccc2cc1O)c1ccccn1` showed an IC50 of 38.2 µM. `CCCCOc1ccc(Cc2cnc(N)nc2N)cc1` showed an IC50 of 90.8 µM. `CN(C)CCCN(C(=O)CCc1ccccc1)c1nc2ccc(Cl)cc2s1` gave an IC50 of 48.2 µM. Compound `Clc1ccc(C[n+]2cc(-c3ccc(Cl)cc3)n3c2CCC3)cc1` has an IC50 of 127 µM. Work on `OC(c1cc(C(F)(F)F)nc2c(Cl)cc(Cl)cc12)C1CCCCN1` (stereo not given) yielded an IC50 of 101 µM. `O=[N+]([O-])c1cc(/C=N/Nc2nc3ccccc3[nH]2)c(O)cc1O` showed an IC50 of 24.3 µM. `Cc1ccc(C(C[N+](=O)[O-])c2c(N)n(C)c(=O)n(C)c2=O)cc1` (stereo not given) gave an IC50 of 62.3 µM. Compound `Cc1ccc(Nc2nc(NCc3ccco3)c3ccccc3n2)cc1` has an IC50 of 44.1 µM. Work on `O=C(O)CCN1C(=O)CC(N2C(=O)/C(=C/c3ccc(Cl)cc3)SC2=S)C1=O` (stereo not given) yielded an IC50 of 40.4 µM. For `CSCC[C@H](NC(=O)Nc1ccc(C)cc1)C(=O)O`, the IC50 was 123 µM. `Cc1cccc(Nc2cc(C)c3c(O)cccc3n2)c1C` showed an IC50 of 39.2 µM. `O=C(CSc1nc2ccccc2s1)N/N=C/c1cc([N+](=O)[O-])ccc1O` was tested, and the IC50 was 109 µM. In the case of `CCC(C)(C)c1ccc(OCCCC[n+]2ccccc2)c(C(C)(C)CC)c1`, the IC50 is reported as 38.9 µM. Compound `CNC[C@H](CC1CCCCC1)NC[C@H](Cc1ccccc1)NCCC12CC3CC(CC(C3)C1)C2` has an IC50 of 18.1 µM. For `CCCCCCCCCCOC(=O)C[N+](C)(C)C/C=C(/C)Cl`, the IC50 was 51.1 µM. `CN(C)CCCNc1cc(C(C)(C)C)nc2c(-c3ccccc3)cnn12` was tested, and the IC50 was 68.2 µM. In the case of `Oc1c(CN2CCOCC2)cc(COCc2ccccc2)c2cccnc12`, the IC50 is reported as 97.8 µM. Work on `Nc1cc2nsnc2cc1Br` yielded an IC50 of 105 µM.
